From article PMC4291348, “A Continuous Enzyme-Coupled Assay for Triphosphohydrolase Activity of HIV-1 Restriction Factor SAMHD1” (Antimicrobial Agents and Chemotherapy, 2014)
Several values for one entry are separate records, joined by “and”; a condition that tells them apart may be missing. Equal entries are not always repeated. Entries after “also recorded” stand apart in the source; their conditions may differ. Values belong to the molecule of their own block, whether it stands above or below them.

Experiments:
[1] = system: T1, SAMHD1; conditions: cited from earlier work; for Hydrolytic activity of SAMHD1 on the compound: in vitro
T1 construct: The catalytic domain of SAMHD1 (residues 115 to 626) was expressed and purified as previously described; made in house

[2] = target: T2, SAMHD1 (residues 115 to 626) (Homo sapiens, UniProt Q9Y3Z3); experiment: Continuous enzyme-coupled (Ppx1 / MDCC-PBP) real-time assay of SAMHD1 triphosphohydrolase activity; type: biochemical; conditions: for Inhibitory effect on steady-state TTP hydrolysis by GTP-activated SAMHD1 (in words): increasing amounts of compound; for KA, apparent dissociation constant for activator binding (activator concentration for half-maximal hydrolysis of TTP substrate): TTP substrate 1 mM, activator varied
T2 construct: The catalytic domain of SAMHD1 (residues 115 to 626) was expressed and purified as previously described; made in house
Experimental: The steady-state kinetics of SAMHD1 were determined by a coupled-enzyme assay using Ppx1 and a fluorescent phosphate biosensor, MDCC-PBP. The reactions were set up in 20-μl volumes in 384-well low-protein-binding microplates (Corning, USA), and the time-dependent fluorescence signal was measured using a Tecan Saffire^2 multiwell plate reader (Männedorf, Switzerland). Solutions containing SAMHD1 (residues 115 to 626), Ppx1, MDCC-PBP, an activator, and an inhibitor (if present) were incubated for 5 min at 25°C before the reaction was initiated by the addition of the substrate. The final concentrations were 100 nM SAMHD1, 10 nM Ppx1, and 40 μM MDCC-PBP. Depending on the experiment, the concentration of the substrate, the activator, or the inhibitor varied while the substrate and/or the activator was held constant at 1 mM and 0.2 mM, respectively. The fluorescence intensity was recorded at 430 nm for excitation and 465 nm for emission wavelengths, with a 7-nm slit width, at 8- to 10-s time intervals over a period of 10 to 30 min. The standard curves were obtained by incubating 40 μM MDCC-PBP with different concentrations of phosphate (Pi) and measuring the fluorescence, as discussed above. The fluorescence response was linear and in the range of 0 to 20 μM Pi.
The steady-state rates were obtained from the time courses of Pi formation by linear regression of the data points in the linear phase of the reaction. Rates were divided by the SAMHD1 concentration and were plotted versus the activator, substrate, or inhibitor concentration. Apparent dissociation constants for the activator (KA) or the substrate binding (KS) and the catalytic constant (kcat) were determined by nonlinear least-squares fitting using either a hyperbolic or a Hill-function equation in the software package GraFit 7.0.3 (Erithacus Software, United Kingdom) ([22]). […] Data from the three different experiments were analyzed by a least-squares fit using the equation for competitive inhibition. The fits for the three data sets yielded invariant values for the inhibition constants (Ki), supporting a competitive mode of inhibition. All measurements were performed in triplicate in the reaction buffer.

[3] = system: T1, SAMHD1; experiment: Malachite green endpoint Ppx1-coupled assay of SAMHD1 (compound screening); type: biochemical, human; conditions: for SAMHD1 activation (TTP hydrolysis relative to control GTP): 200 μM compound as activator, 1 mM TTP substrate; for SAMHD1 inhibition (TTP hydrolysis after inclusion of test compound): 200 μM compound, 200 μM GTP, 1 mM TTP; for Hydrolysis by GTP-activated SAMHD1: 1 mM compound plus 200 μM GTP, relative to control TTP
Experimental: The substrates and compounds were obtained from Jena Biosciences (Jena, Germany) or Thermo Fisher Scientific (Massachusetts, USA). The phosphate concentration was determined using the recommended protocol supplied with the PiColorLock gold phosphate detection system from Innova Biosciences (Cambridge, United Kingdom). Time-course assays were conducted in low-protein-binding 96-well black plates (Corning, USA). The absorbance was measured using a Tecan Safire^2 (Männedorf, Switzerland) plate reader at 630 nm in a fixed-wavelength mode. All the assays were prepared as master mixes immediately before use in a reaction buffer containing 20 mM Tris-HCl, 150 mM NaCl, 5 mM MgCl2, and 2 mM TCEP at pH 7.5.
To determine the triphosphohydrolase activity of SAMHD1, 1 mM substrate and 200 μM allosteric activator were incubated with 5 μM SAMHD1 and 500 nM Ppx1. Fixed-volume samples were removed at predetermined time intervals, and activity was stopped by the addition of 0.25 vol of gold mix (PiColorLock gold) through acidification to a pH of approximately 1.0. After 5 min of incubation at 25°C, 0.1 volume of stabilizer solution (PiColorLock gold) was added, and the mixtures were incubated for a further 30 min at 25°C. The final absorbance was measured as 630 nm by scanning 10 times and averaging data. Each assay was completed in triplicate. The triplicated readings were averaged and normalized by subtracting the average zero-standard optical density. The averaged optical density reading was then compared to a known standard of monophosphate to calculate the concentration of phosphate released.
To determine whether a compound was both a substrate and an allosteric activator of SAMHD1, only 1 mM of the compound of interest was included in the reaction. To test if a compound was a substrate for activated SAMHD1, 1 mM of the compound plus 200 μM GTP was included.

[4] = target: T3, Ppx1 (Saccharomyces cerevisiae, UniProt P38698); experiment: Ppx1 triphosphate hydrolysis kinetics and specificity controls; type: biochemical; conditions: recombinant Ppx1 0.3 nM, 25°C, MDCC-PBP
T3 construct: StrepII-tag (N); made in house; host or cells: Escherichia coli BL21(DE3)
Experimental: Sample controls were used to check for potential Ppx1 activity on the compounds and the reagents. In these assays, the 200 μM compound was incubated in a reaction buffer at 25°C for 30 s with 500 nM Ppx1, either with or without 200 μM triphosphate. The Ppx1 activity was determined by measuring phosphate release with malachite green detection, as described for the coupled assay above.
The initial control experiments were undertaken to assess the suitability of Ppx1 as a coupled enzyme for the assay. The Km for Ppx1 hydrolysis of a polyphosphate ranged from 0.004 to 140 μM ([23]) for P250 to P3 substrates, with kcat values between 180 and 1,500 s^−1 at 37°C, depending on the preparation ([23][–][25]). […] Over the triphosphate substrate concentration range employed in the assays, this rate is substantially higher than that of SAMHD1 dNTP hydrolysis (kcat, ∼1.3 s^−1) and so is suitable as the coupling enzyme in an assay. […]
FIG 2 Kinetics and specificity of Ppx1 hydrolysis. (A) Steady-state kinetics of Ppx1-catalyzed triphosphate cleavage to Pi and PPi were measured using 40 μM MDCC-PBP, 0.3 nM Ppx1, and various concentrations of the triphosphate. The error bars represent the SEM of three independent measurements recorded at each substrate concentration. […] (B) Specificity of Ppx1 hydrolysis was measured using the malachite green endpoint assay. […]

[5] = system: HIV-1; design: method as in PMID 24867973, PMID 23744077, PMID 24913159; conditions: monocyte-derived macrophages and activated CD4+ T cells; cited from earlier work

T2 sequence (Q9Y3Z3 115-626): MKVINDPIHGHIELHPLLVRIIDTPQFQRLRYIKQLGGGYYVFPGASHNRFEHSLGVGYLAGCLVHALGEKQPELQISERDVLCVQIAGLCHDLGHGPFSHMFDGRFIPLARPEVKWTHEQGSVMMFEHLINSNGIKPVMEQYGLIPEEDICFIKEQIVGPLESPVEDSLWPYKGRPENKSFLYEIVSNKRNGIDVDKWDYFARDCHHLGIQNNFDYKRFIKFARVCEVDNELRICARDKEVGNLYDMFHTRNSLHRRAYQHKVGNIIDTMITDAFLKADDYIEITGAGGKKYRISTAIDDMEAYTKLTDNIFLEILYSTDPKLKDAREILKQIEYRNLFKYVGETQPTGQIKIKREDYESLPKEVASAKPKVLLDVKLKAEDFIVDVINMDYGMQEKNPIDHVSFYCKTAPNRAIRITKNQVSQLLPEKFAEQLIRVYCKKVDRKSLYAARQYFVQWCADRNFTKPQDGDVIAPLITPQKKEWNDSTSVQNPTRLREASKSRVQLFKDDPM
T3 sequence (P38698 whole entry): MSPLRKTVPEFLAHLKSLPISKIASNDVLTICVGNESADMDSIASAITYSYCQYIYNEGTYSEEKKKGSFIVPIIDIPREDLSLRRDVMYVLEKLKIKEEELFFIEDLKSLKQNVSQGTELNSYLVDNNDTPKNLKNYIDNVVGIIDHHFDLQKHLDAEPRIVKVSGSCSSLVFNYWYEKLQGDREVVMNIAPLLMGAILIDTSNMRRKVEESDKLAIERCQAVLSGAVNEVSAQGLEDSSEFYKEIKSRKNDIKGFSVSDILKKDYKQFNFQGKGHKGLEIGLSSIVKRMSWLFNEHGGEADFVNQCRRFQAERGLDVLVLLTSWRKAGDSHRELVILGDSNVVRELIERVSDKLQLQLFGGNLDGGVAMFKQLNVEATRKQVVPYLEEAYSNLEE

Compound: Nc1ccn([C@H]2CS[C@@H](COP(=O)(O)OP(=O)(O)OP(=O)(O)O)O2)c(=O)n1 [3TC-TP, 2′,3′-dideoxy-3′-thiacytidine triphosphate]
Hydrolytic activity of SAMHD1 on the compound [1]: little or no hydrolytic activity

Compound: Cc1cn([C@H]2C[C@H](N=[N+]=[N-])[C@@H](CO[P@](=O)(O)O[P@](=O)(O)OP(=O)(O)O)O2)c(=O)[nH]c1=O [AZT-TP, azidothymidine triphosphate]
Hydrolytic activity of SAMHD1 on the compound [1]: little or no hydrolytic activity

Compound: Nc1nc2c(ncn2COCCOP(=O)(O)OP(=O)(O)OP(=O)(O)O)c(=O)[nH]1 [Acyclovir-TP, acyclovir triphosphate]
EC50 [2]: 15.6 ± 2.2 µM | SAMHD1 inhibition (TTP hydrolysis after inclusion of test compound) [3]: not significantly inhibited | Hydrolysis by GTP-activated SAMHD1 [3]: refractory to hydrolysis; also recorded: not a substrate

Compound: Cc1cn([C@H]2C[C@H](N=[N+]=[N-])[C@@H](CO)O2)c(=O)[nH]c1=O [AZT]
Change in efficacy against HIV-1 infection on downregulation of SAMHD1 [5]: large decrease in the efficacy

Compound: Cc1cn([C@H]2C=C[C@@H](COP(=O)(O)OP(=O)(O)OP(=O)(O)O)O2)c(=O)[nH]c1=O [d4T-TP, 2′,3′-didehydro-2′,3′-dideoxythymidine triphosphate]
Hydrolytic activity of SAMHD1 on the compound [1]: little or no hydrolytic activity

Compound: Nc1nc(Cl)nc2c1ncn2[C@@H]1O[C@H](COP(=O)(O)OP(=O)(O)OP(=O)(O)O)[C@@H](O)[C@@H]1F [Clofarabine-TP, clofarabine triphosphate]
nS, Hill coefficient for substrate binding ([2]; GTP activator 0.2 mM): 2.8 ± 0.1 | KS, apparent dissociation constant for substrate binding ([2]; GTP activator 0.2 mM, 25°C): 67.6 ± 8.9 µM | SAMHD1 activation (TTP hydrolysis relative to control GTP) [3]: no activation | SAMHD1 inhibition (TTP hydrolysis after inclusion of test compound) [3]: diminished only slightly | Hydrolysis by GTP-activated SAMHD1 [3]: hydrolyzed at a rate comparable to that of the control TTP; also recorded: hydrolyzed by SAMHD1 at a rate comparable to that of natural dNTP substrates

Further lines, with some results ahead:

Ki ([2]; read-out: Ki, inhibition constant): 1.13 ± 0.07 µM
Compound: Nc1ncnc2c1ncn2[C@H]1C[C@H](O)[C@@H](COP(=O)(O)NP(=O)(O)OP(=O)(O)O)O1 [dApNHpp]
Inhibitory effect on steady-state TTP hydrolysis by GTP-activated SAMHD1 (in words) ([2]; GTP activator, TTP substrate): potent inhibition; also recorded: strong competitive inhibitor | SAMHD1 activation (TTP hydrolysis relative to control GTP) [3]: no activation | SAMHD1 inhibition (TTP hydrolysis after inclusion of test compound) [3]: substantial reduction in TTP hydrolysis to near background levels | Hydrolysis by GTP-activated SAMHD1 [3]: refractory to hydrolysis

Ki, inhibition constant ([2]; GTP activator, TTP substrate (1, 0.3, 0.1 mM), competitive inhibition model): No inhibition | KA, apparent dissociation constant for activator binding (activator concentration for half-maximal hydrolysis of TTP substrate) ([2]; 25°C): No activation | KA, apparent dissociation constant for activator binding (activator concentration for half-maximal hydrolysis of TTP substrate) ([2]; 25°C, listed as ganciclovir-TP): unable to activate SAMHD1 | Inhibitory effect on steady-state TTP hydrolysis by GTP-activated SAMHD1 (in words) ([2]; GTP activator, TTP substrate): no effect
Compound: Nc1nc2c(ncn2COC(CO)COP(=O)(O)OP(=O)(O)OP(=O)(O)O)c(=O)[nH]1 (stereo not drawn) [Ganciclovir-TP, ganciclovir triphosphate]
SAMHD1 activation (TTP hydrolysis relative to control GTP) [3]: no activation | SAMHD1 inhibition (TTP hydrolysis after inclusion of test compound) [3]: not significantly inhibited | Hydrolysis by GTP-activated SAMHD1 [3]: refractory to hydrolysis

kcat of Ppx1 triphosphate hydrolysis [4]: 338 s⁻¹ and 338 ± 31 s⁻¹
Compound: O=P(O)(O)OP(=O)(O)OP(=O)(O)O [triphosphate]

KA, apparent dissociation constant for activator binding (activator concentration for half-maximal hydrolysis of TTP substrate) ([2]; 25°C): 32.0 ± 4.2 µM
Compound: Nc1nc2c(ncn2[C@@H]2O[C@H](COP(=O)(O)OP(=O)(O)OP(=O)(O)O)[C@@H](O)[C@H]2O)c(=O)[nH]1 [GTP]
Activation of SAMHD1 [1]: activates SAMHD1 as effectively as dGTP

nS, Hill coefficient for substrate binding ([2]; Acyclovir-TP as activator, TTP substrate): 3.0 ± 0.1 | KS, apparent dissociation constant for substrate binding ([2]; Acyclovir-TP as activator, TTP substrate, Hill-modified model): 353 ± 16 µM | KS, apparent dissociation constant for substrate binding ([2]; GTP activator 0.2 mM, 25°C): 96.3 ± 1.7 µM
Compound: Cc1cn([C@H]2C[C@H](O)[C@@H](COP(=O)(O)OP(=O)(O)OP(=O)(O)O)O2)c(=O)[nH]c1=O [TTP]
